Data published in publication PMC5077990, “P53 activation inhibits all types of hematopoietic progenitors and all stages of megakaryopoiesis” (Oncotarget, 2016).
Read-outs that look alike come from different tables or passages of the source.

Key:
[1] = system: BFU-E (Burst Forming Unit-Erythroid) progenitors from CD34+ cells; experiment: Colony assay in methylcellulose, BFU-E; type: cell-based, human; conditions: for IC50: Homo sapiens
Experimental: CD34^+cells were obtained from leukapheresis samples after mobilization of donors after informed consent in agreement with our Institute Ethic Committee (Assistance Publique des Hôpitaux de Paris) and in accordance with the Declaration of Helsinki. CD34^+cells were isolated by a positive selection using an immunomagnetic cell sorting system (AutoMacs; Miltenyi Biotec, Bergisch Gladbach, Germany). 500 to 1000 normal CD34^+cells were plated either in 1% methylcellulose assay (StemCells technologies, Vancouver, Canada) to quantify erythroid (BFU-E) and granulo-monocytic (CFU-GM) progenitors or in serum-free fibrin clot assay for quantification of MK progenitors (CFU-MK) in the absence or presence of various concentration of SAR405838 or MI-219. Cultures in methylcellulose were stimulated by addition of human recombinant growth factors: G-CSF (20 ng/mL), IL-3 (10 ng/mL) SCF (25 ng/mL, Biovitrum AB, Stockholm, Sweden), IL-6 (10 ng/mL), FLT3 (10 ng/mL) and human EPO (1 U/mL). Cultures in fibrin clot were stimulated with 10 ng/mL TPO (Kirin Brewery, Tokyo, Japan) and 25 ng/mL SCF. BFU-E and CFU-GM colonies were enumerated at day 14 of culture. CFU-MK colonies were enumerated at day 12 after labeling by an indirect immuno-alkaline phosphatase staining technique using an anti-CD41a monoclonal antibody (MoAb; Becton Dickinson, le Pont de Claix, France; clone HIP8), as previously described.

Day 8-erythroblasts = experiment: Apoptosis of erythroblasts, Annexin V flow cytometry; type: cell-based, human; conditions: 48 hour treatment, as low as 0.5 μM
Experimental: For that purpose, CD34^+ progenitors were cultured in serum-free medium with SCF and EPO for 8 days. […] Day 8-erythroblasts were treated with various doses of SAR405838 or MI-219 for 48 hours. The viable cells were counted by Trypan blue exclusion and the apoptotic cells were quantified by flow cytometry analysis using annexin V/ propidium iodide labeling.
B. Day 8-erythroblasts were treated with various doses of MI-219 or SAR405838 for 48 hours and counted by trypan blue exclusion. C. Day 8-erythroblasts were treated with various doses of MI-219 or SAR405838 for 48 hours and apoptotic cells were analyzed by flow cytometry using Annexin V assay. The results represent the mean of 3 independent experiments. * represents statistical significance (*P<0.05; **P<0.01; ***P<0.001).

[2] = system: CD34+ progenitors cultured with SCF and TPO; experiment: Viable CD34+ progenitors at early stage of megakaryocytic differentiation, Trypan blue exclusion; type: cell-based; conditions: Homo sapiens, read-out: IC50, decrease in number of viable cells
Experimental: We explored the effect of p53 stabilization on the viability of CD34^+progenitors at early stages of megakaryocytic differentiation. CD34^+ progenitors were cultured for one day in serum-free medium supplemented with SCF and TPO and treated with SAR405838 or MI-219. After a 48 or 72 hour incubation, cells were counted by Trypan blue exclusion and apoptotic cells were quantified by flow cytometry using Annexin V / Propidium iodide labeling.
A. Cells were counted by Trypan blue exclusion.

Day 6-megakaryoblasts = experiment: Viability of day 6-megakaryoblasts; type: cell-based, human; conditions: 0.5 μM, 72 hours
Experimental: (§1) We also explored the effects of p53 stabilization at a later stage of megakaryocytic differentiation. […] Day 7-MKs were treated with 5 μM Nutlin 3a for 24 or 48 hours, which led to an increase in p53, p21, BAX, BCL2 and BCL-XL levels, confirming a functional p53 activity (Figure 6A). […] Similar results were found with day 6-megakaryoblasts treated with two doses of SAR405838 for 72 hours (Figure 6D/6E) without any major effect on the percentage of CD41^+ cells (Figure 6F). […] As shown in Figure 6D/6E, at the dose of 0.5 μM the SAR405838 induced a 50% decreased in the number of viable cells while the apoptotic cells reached 50% of the total cells. We checked if the effect of SAR405838 on MKs could be reverted by the addition of high TPO doses. CD34^+ progenitors were cultured in serum-free medium supplemented with SCF and low dose of TPO (1 ng/mL) for 6 days. Day 6-megakaryoblasts were then treated with 1.5 μM of SAR405838 for 48 hours and various doses of TPO.
In parallel, the expression of P53, BAK, BCL2L1, NOXA, PUMA, BAX, P21 and P53 were quantified by qRT-PCR related to HPRT. C. […] (n=3). D, E, F. Day 6-megakaryoblasts were exposed to MI-219 or SAR405838 (0.5 or 1 μM for 72 hours) and cell viability (D), apoptosis (E) or CD41 expression (F) were investigated. […] One representative experiment (n= 2). […]

megakaryoblasts / MKs = experiment: Apoptosis of megakaryoblasts/MKs, Annexin V flow cytometry; type: cell-based, human; conditions: day 6-megakaryoblasts
Experimental: as §1
(§2) In parallel, the expression of P53, BAK, BCL2L1, NOXA, PUMA, BAX, P21 and P53 were quantified by qRT-PCR related to HPRT. C. […] (n=3). […]
Apoptosis was measured by Annexin V-FITC detection kit (BD Pharmigen, San Diego, CA) and analyzed by flow cytometry on a LSRII (Becton Dickinson Mountain View, CA).

[3] = system: p53 pathway in megakaryocytes (MKs); experiment: p53 pathway proteins and transcripts in MKs (western-blot, qRT-PCR); type: cell-based, human; conditions: day 11-MKs, 1 μM, 24 hours (legend: 5 μM), compared to 1 μM MI-219 or untreated control
Experimental: as §1, §2
PCRs were carried out in the ABI Prism GeneAmp 5700 (Perkin-Elmer) using the Power SYBR-Green PCR Master Mix (ABI) containing the specific primers. The expression levels of all genes were calculated relatively to HPRT or to PPIA housekeeping gene.
Proteins were quantified by Image J software.

[4] = parameters: method as in PMID 25145672; conditions: cited from earlier work
[5] = system: p53 in day 8-erythroblasts; experiment: p53 expression by western-blot in day 8-erythroblasts; conditions: Homo sapiens, 192 h, read-out: p53 fold induction (western-blot)
Experimental: For that purpose, CD34^+ progenitors were cultured in serum-free medium with SCF and EPO for 8 days. SAR405838- or MI-219-treated erythroblasts were analyzed for p53 expression by western-blot. […] Day 8-erythroblasts were treated with various doses of SAR405838 or MI-219 for 48 hours.
Figure 4 Effect of SAR405838 on erythroid differentiation A. Day 8-erythroblasts treated with MI-219 or SAR405838 were analyzed for p53 expression by western-blot. β-actin was used as loading control.
Expression levels were performed by western-blot analysis using mouse anti-p53 and anti-β-actin (Sigma-Aldrich), anti-bax (Oncogene), anti-p21 (Beckton Dickenson), anti-Mdm2 (BD Pharmingen), anti-BCL-XL, and rat anti-HSC70 (Stressgen). Proteins were quantified by Image J software.

**Q.** Which IC50 ([1]; 72 h, CD34+ cells treated 3 days, washed, then plated in colony assay, read-out: IC50, reduction of BFU-E progenitors) does the source give for `CC(C)(C)C[C@@H]1N[C@@H](C(=O)N[C@H]2CC[C@H](O)CC2)[C@H](c2cccc(Cl)c2F)[C@]12C(=O)Nc1cc(Cl)ccc12` [SAR405838] here?
**A.** ~2000 nM

**Q.** And the IC50 ([1]; CD34+ cells seeded in methylcellulose in the presence of compound, compared to untreated control, read-out: dose inducing a 50% reduction of BFU-E numbers)?
**A.** 500 to 1000 nM

**Q.** And the “higher sensitivity of CD34+CD38- progenitors than CD34+CD38+ progenitors (BFU-E)” value ([1]; sorted CD34+CD38- immature vs CD34+CD38+ committed cells)?
**A.** 2 fold

**Q.** What about the “apoptotic cells (annexin V/propidium iodide)” value (Day 8-erythroblasts) of the same compound?
**A.** increased in a dose-dependent manner

**Q.** And the IC50 ([2]; 48 hours of treatment)?
**A.** ~1500 nM

**Q.** And the IC50 ([2]; 72 hours of treatment)?
**A.** ~1500 nM

**Q.** What about the “decrease in the number of viable cells” value (Day 6-megakaryoblasts) of the same compound?
**A.** 50%

**Q.** And the “apoptotic cells, of the total cells” value (megakaryoblasts / MKs; 0.5 μM, 72 hours)?
**A.** 50%

**Q.** What about the “reversal of compound-mediated MK apoptosis by increasing doses of TPO” value (megakaryoblasts / MKs; 1.5 μM for 48 hours, various doses of TPO) of the same compound?
**A.** unable to revert

**Q.** And the “P21, BAX, PUMA and BCL2L1 transcripts (qRT-PCR related to HPRT)” value [3]?
**A.** significant increase

**Q.** And the hematopoietic toxicity [4]?
**A.** reversible thrombocytopenia

**Q.** And the fold induction at 2 µM [5]?
**A.** 4.8

**Q.** What about the fold induction at 4 µM [5] of the same compound?
**A.** 4.5
